Laboratory results reported in patent publication US20240132525A1, “BORON […], CO[…], METHODS AND USES THEREOF” (priority 2022, published 2024).
Where two headings read alike, the source gives them in different places.

Experiments:
[1] = system: IL-4/pSTAT6; assay: Cytokine function assay IL-4/pSTAT6 in PBMC; type: cell-based
Description: (§1) Cytokine Function Assay Protocols for IL-4/pSTAT6 and GM-CSF/pSTAT5
IL-4/pSTAT6: • PBMC from a healthy donor was plated onto a 96 w plate. Compound was added and incubated for 1 hour (at 37° C.). After 1 hour, cells were stimulated with IL-4 for 15 minutes. Cells were fixed and stained with anti-pSTAT6 antibody. After staining, cells were read on a Beckman-Coulter CytoFLEX.

[2] = target: JAK2 (Homo sapiens (Human), UniProt O60674); assay: Biochemical kinase assay (33P-ATP filter-binding), JAK2; conditions: read-out: IC50 JAK2
JAK2, sequence (O60674 whole entry, species assumed): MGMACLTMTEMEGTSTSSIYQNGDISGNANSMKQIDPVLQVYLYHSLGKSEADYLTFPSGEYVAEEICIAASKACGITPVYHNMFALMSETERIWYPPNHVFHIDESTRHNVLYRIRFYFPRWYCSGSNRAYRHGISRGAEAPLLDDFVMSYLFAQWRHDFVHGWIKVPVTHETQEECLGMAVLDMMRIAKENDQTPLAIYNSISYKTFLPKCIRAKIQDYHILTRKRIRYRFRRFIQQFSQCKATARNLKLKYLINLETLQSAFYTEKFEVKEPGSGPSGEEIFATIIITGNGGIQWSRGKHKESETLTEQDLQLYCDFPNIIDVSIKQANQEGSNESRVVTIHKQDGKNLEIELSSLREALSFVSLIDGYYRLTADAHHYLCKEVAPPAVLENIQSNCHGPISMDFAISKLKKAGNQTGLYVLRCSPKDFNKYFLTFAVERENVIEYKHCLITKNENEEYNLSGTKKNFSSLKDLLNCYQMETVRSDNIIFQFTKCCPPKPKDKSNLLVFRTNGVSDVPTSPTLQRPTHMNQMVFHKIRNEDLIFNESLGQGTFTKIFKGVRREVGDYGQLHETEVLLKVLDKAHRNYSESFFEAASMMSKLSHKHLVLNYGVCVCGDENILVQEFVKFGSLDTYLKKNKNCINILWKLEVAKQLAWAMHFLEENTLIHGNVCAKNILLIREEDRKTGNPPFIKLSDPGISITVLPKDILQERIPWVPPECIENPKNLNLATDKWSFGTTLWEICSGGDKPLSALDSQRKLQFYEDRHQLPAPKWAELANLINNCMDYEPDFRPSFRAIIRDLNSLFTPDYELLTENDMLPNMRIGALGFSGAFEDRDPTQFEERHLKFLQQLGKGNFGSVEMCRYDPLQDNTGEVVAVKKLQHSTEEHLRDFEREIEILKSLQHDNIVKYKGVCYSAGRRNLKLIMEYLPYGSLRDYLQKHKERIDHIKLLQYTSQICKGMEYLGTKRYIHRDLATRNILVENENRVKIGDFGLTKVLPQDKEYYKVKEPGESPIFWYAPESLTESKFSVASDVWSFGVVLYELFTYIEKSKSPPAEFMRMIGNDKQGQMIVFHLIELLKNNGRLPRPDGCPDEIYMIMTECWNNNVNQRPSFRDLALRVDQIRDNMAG
Source text: (§2) Biochemical Kinase Assay Protocol (JAK)
(§3) Reaction Procedure: • 1. […] Detected kinase activity by filter-binding method.

[3] = target: JAK1 (Homo sapiens (Human), UniProt P23458); assay: Biochemical kinase assay (33P-ATP filter-binding), JAK1; conditions: read-out: IC50 JAK1
JAK1, sequence (P23458 whole entry, species assumed): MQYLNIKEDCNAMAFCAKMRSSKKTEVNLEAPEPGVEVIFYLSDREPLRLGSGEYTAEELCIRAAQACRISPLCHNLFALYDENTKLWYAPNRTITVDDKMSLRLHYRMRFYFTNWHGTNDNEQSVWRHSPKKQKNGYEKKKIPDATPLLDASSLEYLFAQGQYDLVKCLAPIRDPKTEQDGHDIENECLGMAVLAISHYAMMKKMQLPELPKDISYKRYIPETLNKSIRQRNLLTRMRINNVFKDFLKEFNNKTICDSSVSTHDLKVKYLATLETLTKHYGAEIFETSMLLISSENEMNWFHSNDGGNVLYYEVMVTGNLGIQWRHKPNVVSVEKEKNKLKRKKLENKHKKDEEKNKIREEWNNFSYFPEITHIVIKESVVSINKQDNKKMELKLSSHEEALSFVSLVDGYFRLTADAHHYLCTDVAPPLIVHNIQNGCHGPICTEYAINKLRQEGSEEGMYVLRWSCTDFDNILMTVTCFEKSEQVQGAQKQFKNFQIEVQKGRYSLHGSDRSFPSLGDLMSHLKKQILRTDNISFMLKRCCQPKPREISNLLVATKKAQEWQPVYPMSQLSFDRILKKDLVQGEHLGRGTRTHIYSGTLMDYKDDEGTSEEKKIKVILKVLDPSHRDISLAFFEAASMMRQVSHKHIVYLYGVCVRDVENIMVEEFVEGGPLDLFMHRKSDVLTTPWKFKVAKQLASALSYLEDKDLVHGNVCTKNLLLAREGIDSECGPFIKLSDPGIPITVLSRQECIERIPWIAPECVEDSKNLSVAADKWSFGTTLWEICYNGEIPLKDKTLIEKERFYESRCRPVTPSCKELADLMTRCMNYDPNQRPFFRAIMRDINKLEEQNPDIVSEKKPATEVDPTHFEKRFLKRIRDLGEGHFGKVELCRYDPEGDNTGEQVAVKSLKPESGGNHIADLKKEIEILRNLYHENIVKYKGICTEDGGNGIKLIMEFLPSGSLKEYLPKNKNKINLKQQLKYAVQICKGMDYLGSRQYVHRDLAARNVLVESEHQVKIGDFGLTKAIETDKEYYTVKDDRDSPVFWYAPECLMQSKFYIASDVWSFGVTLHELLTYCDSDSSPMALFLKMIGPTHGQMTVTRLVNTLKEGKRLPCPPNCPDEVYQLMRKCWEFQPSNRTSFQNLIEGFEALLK
Source text: as §2, §3

[4] = target: PDE4B (Homo sapiens (Human), UniProt Q07343); assay: PDE4B inhibition; type: biochemical
PDE4B, sequence (Q07343 whole entry, species assumed): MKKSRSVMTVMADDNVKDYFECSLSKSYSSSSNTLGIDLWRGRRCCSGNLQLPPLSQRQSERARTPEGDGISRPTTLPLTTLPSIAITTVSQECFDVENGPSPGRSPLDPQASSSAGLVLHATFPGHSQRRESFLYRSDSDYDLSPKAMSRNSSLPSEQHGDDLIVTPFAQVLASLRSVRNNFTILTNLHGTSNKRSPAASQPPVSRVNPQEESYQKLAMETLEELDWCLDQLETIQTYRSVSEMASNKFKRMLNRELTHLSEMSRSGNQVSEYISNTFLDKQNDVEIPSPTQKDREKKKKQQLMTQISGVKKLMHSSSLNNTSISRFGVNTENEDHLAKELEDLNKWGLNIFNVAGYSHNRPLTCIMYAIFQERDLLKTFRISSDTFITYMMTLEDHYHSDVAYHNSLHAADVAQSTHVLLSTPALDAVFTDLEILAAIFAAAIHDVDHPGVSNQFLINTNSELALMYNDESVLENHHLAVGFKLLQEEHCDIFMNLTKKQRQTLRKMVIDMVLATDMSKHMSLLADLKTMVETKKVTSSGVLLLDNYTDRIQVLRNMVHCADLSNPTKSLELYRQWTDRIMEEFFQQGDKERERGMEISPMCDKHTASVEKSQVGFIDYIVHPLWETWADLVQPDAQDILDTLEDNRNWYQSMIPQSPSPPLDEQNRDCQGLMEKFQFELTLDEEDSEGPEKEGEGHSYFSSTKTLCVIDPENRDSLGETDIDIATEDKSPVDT

[5] = Dog LM (liver microsome) assay; type: in vitro ADME; conditions: predicted clearance as percent of liver blood flow
Description: Dog LM (Liver Microsome) Assay
The metabolic degradation of the test compound is assayed at 37° C. with pooled liver microsomes from dogs (Beagle). The final incubation volume of 100 μl per time point contains TRIS buffer pH 7.6 at RT (0.1 M), magnesium chloride (5 mM), microsomal protein (1 mg/ml) and the test compound at a final concentration of 1 μM. Following a short preincubation period at 37° C., the reactions were initiated by addition of beta-nicotinamide adenine dinucleotide phosphate, reduced form (NADPH, 1 mM) and terminated by transferring an aliquot into solvent after different time points. Additionally, the NADPH-independent degradation was monitored in incubations without NADPH, terminated at the last time point. The [%] remaining test compound after NADPH independent incubation is reflected by the parameter c (control) (metabolic stability). The quenched incubations are pelleted by centrifugation (10000 g, 5 min). An aliquot of the supernatant is assayed by LC-MS/MS for the amount of parent compound. The half-life (t½ INVITRO) is determined by the slope of the semilogarithmic plot of the concentration-time profile. The intrinsic clearance (CL_[…]) is calculated by considering the amount of protein in the incubation: CL_[…] [μl/min/mg protein]=(Ln 2/(half-life [min]*protein content [mg/ml]))*1000. For better across species comparison the predicted clearance is expressed as percent of the liver blood flow [% QH] in the individual species. In general, high stability (corresponding to low % QH) of the compounds across species is desired.

[6] = system: GM-CSF/pSTAT5; assay: Cytokine function assay GM-CSF/pSTAT5 in lysed whole blood cells; type: cell-based; conditions: Table 3b, comparator compounds; read-out: IC50 GM-CSF
Description: as §1
GM-CSF/pSTAT5: • Whole blood from a healthy donor was lysed to remove red blood cells. Cells were plated onto a 96 well plate. Compound was added and incubated for 1 hour (at 37° C.). After 1 hour, cells were stimulated with GM-CSF for 15 minutes. Cells were fixed and stained with anti-pSTAT5 antibody. After staining, cells were read on a Beckman-Coulter CytoFLEX.

[7] = PBMC, read-out: IC50 IL-4, Table 3a
[8] = Table 3a, 1 μM, 1 mg/ml microsomal protein
[9] = Table 3b, comparator compounds, read-out: IC50 IL-4

SMILES	IC50 [1, 7]	IC50 ([2]; Table 3a)	IC50 ([3]; Table 3a)	Dog LM QH [5, 8]	IC50 ([2]; Table 3b, comparator compounds)	IC50 ([3]; Table 3b, comparator compounds)	Dog LM QH ([5]; Table 3b, comparator compounds)	also measured
Cc1cnc(Nc2ccc3c(c2)COB3O)nc1N[C@@H]1CCC[C@H]1C#N (relative stereo) [Example 001, (trans)-2-((2-((1-hydroxy-1,3-dihydrobenzo[c][1,2]oxaborol-5-yl)amino)-5-methylpyrimidin-4-yl)amino)cyclopentane-1-carbonitrile]	173 nM	24.7 nM	1.1 nM	39.7%	–	–	–	IC50 ([4]; Table 3a): 362 nM
N#C[C@@H]1CCC[C@H]1Nc1nc(Nc2ccc3c(c2)COB3O)ncc1Cl (relative stereo) [Example 005, (trans)-2-[[5-chloro-2-[(1-hydroxy-3H-2,1-benzoxaborol-5-yl)amino]pyrimidin-4-yl]amino]cyclopentane-1-carbonitrile]	–	9 nM	0.5 nM	<19.9%	–	–	–	IC50 ([4]; Table 3a): 44.5 nM
Cc1cnc(Nc2cc3c(c(C(F)(F)F)c2)B(O)OC3)nc1N[C@@H]1CCC[C@H]1C#N (relative stereo) [Example 006, (trans)2-[[2-[[1-hydroxy-7-(trifluoromethyl)-3H-2,1-benzoxaborol-5-yl]amino]-5-methyl-pyrimidin-4-yl]amino]cyclopentanecarbonitrile]	202 nM	36.6 nM	1 nM	<19.9%	–	–	–	–
Cc1cnc(Nc2ccc3c(c2)C=CB(O)O3)nc1N[C@@H]1COCC[C@H]1C#N (relative stereo) [Example 035, (trans)-3-[[2-[(2-hydroxy-1,2-benzoxaborinin-6-yl)amino]-5-methyl-pyrimidin-4-yl]amino]tetrahydropyran-4-carbonitrile]	–	8.8 nM	0.7 nM	43.7%	–	–	–	IC50 ([4]; Table 3a): 320 nM
Cc1cnc(Nc2cc3c(c(C(F)(F)F)c2)OB(O)C=C3)nc1N[C@@H]1COCC[C@H]1C#N (relative stereo) [Example 037, (trans)-3-[[2-[[2-hydroxy-8-(trifluoromethyl)-1,2-benzoxaborinin-6-yl]amino]-5-methyl-pyrimidin-4-yl]amino]tetrahydropyran-4-carbonitrile]	919 nM	18.5 nM	3.1 nM	19.9%	–	–	–	–
N#C[C@@H]1CCOC[C@H]1Nc1nc(Nc2cc(Cl)c3c(c2)COB3O)ncc1C(F)(F)F (relative stereo) [Example 049, (trans)-3-((2-((7-chloro-1-hydroxy-1,3-dihydrobenzo[c][1,2]oxaborol-5-yl)amino)-5-(trifluoromethyl)pyrimidin-4-yl)amino)tetrahydro-2H-pyran-4-carbonitrile]	173 nM	13.3 nM	8.2 nM	39.7%	–	–	–	IC50 ([4]; Table 3a): 362 nM
Cc1cnc(Nc2cc(Cl)c3c(c2)COB3O)nc1N[C@@H]1CCC[C@H]1C#N (single isomer, unassigned) [Example 003b, (trans)-2-((2-((7-chloro-1-hydroxy-1,3-dihydrobenzo[c][1,2]oxaborol-5-yl)amino)-5-methylpyrimidin-4-yl)amino)cyclopentane-1-carbonitrile]	–	83.1 nM	5 nM	<19.9%	–	–	–	IC50 ([1]; read-out: IC50 IL-4, Table 3a): 74.8 nM
Cc1cnc(Nc2cc(F)c3c(c2)C=CB(O)O3)nc1N[C@@H]1COCC[C@H]1C#N (single isomer, unassigned) [Example 036a, (trans)-3-((2-((8-fluoro-2-hydroxy-2H-benzo[e][1,2]oxaborinin-6-yl)amino)-5-methylpyrimidin-4-yl)amino)tetrahydro-2H-pyran-4-carbonitrile]	158 nM	4.8 nM	0.3 nM	33.1%	–	–	–	–
Cc1cnc(Nc2ccc3c(c2)C(C(C)C)=CB(O)O3)nc1N[C@H]1COCC[C@@H]1C#N (single isomer, unassigned) [Example 039a, (trans)-3-((2-((2-hydroxy-4-isopropyl-2H-benzo[e][1,2]oxaborinin-6-yl)amino)-5-methylpyrimidin-4-yl)amino)tetrahydro-2H-pyran-4-carbonitrile]	265 nM	18.9 nM	1.1 nM	78.4%	–	–	–	–
Cc1cnc(Nc2cc(Cl)c3c(c2)C(C(C)C)=CB(O)O3)nc1N[C@H]1COCC[C@@H]1C#N (single isomer, unassigned) [Example 040b, (trans)-3-((2-((8-chloro-2-hydroxy-4-isopropyl-2H-benzo[e][1,2]oxaborinin-6-yl)amino)-5-methylpyrimidin-4-yl)amino)tetrahydro-2H-pyran-4-carbonitrile]	1410 nM	16.7 nM	1.1 nM	47.4%	–	–	–	–
COc1cc(Nc2ncc(C)c(N[C@H]3COCC[C@@H]3C#N)n2)cc2c1B(O)OC2 (single isomer, unassigned) [Example 044a, (trans)-3-((2-((1-hydroxy-7-methoxy-1,3-dihydrobenzo[c][1,2]oxaborol-5-yl)amino)-5-methylpyrimidin-4-yl)amino)tetrahydro-2H-pyran-4-carbonitrile]	–	0.8 nM	0.2 nM	34.9%	–	–	–	–
COc1cc(Nc2ncc(C)c(N[C@H]3COCC[C@@H]3C#N)n2)cc2c1B(O)OC2 (single isomer, unassigned) [Example 044b, (trans)-3-((2-((1-hydroxy-7-methoxy-1,3-dihydrobenzo[c][1,2]oxaborol-5-yl)amino)-5-methylpyrimidin-4-yl)amino)tetrahydro-2H-pyran-4-carbonitrile]	–	96.8 nM	33.8 nM	<19.9%	–	–	–	–
Cc1cnc(Nc2cc(Cl)c3c(c2)COB3O)nc1N[C@@H]1CCCOC1 [Example 030a]	–	868 nM	51.1 nM	<19.9%	–	–	–	–
CC1=Cc2cc(Nc3ncc(C)c(NC4COCCC4C#N)n3)ccc2OB1O (stereo not shown) [Example 038, 3-[[2-[(2-hydroxy-3-methyl-1,2-benzoxaborinin-6-yl)amino]-5-methyl-pyrimidin-4-yl]amino]tetrahydropyran-4-carbonitrile]	–	23.7 nM	1.4 nM	50.4%	–	–	–	–
CCC(CC)Nc1nc(Nc2cc(Cl)c3c(c2)COB3O)ncc1C [Example C002]	–	–	–	–	95.7 nM	1.1 nM	<19.9%	IC50 [1, 9]: 155 nM; IC50 [6]: 10000 nM
CCC(CC)Nc1nc(Nc2ccc3c(c2)COB3O)ncc1Cl [Example C005]	–	–	–	–	33.3 nM	1.1 nM	–	IC50 [1, 9]: 6120 nM; IC50 ([4]; Table 3b, comparator compounds): 379 nM; IC50 [6]: 2250 nM
OB1OCc2cc(Nc3nccc(NC4CCCCC4)n3)ccc21 [Example C010]	–	–	–	–	364 nM	48 nM	–	IC50 ([4]; Table 3b, comparator compounds): 956 nM; Inhibition PDE4B @ 1 μM ([4]; Table 3b, comparator compounds): 53%
Cc1cnc(Nc2cc(Cl)c3c(c2)COB3O)nc1NC1CCCCC1 [Example C012]	–	–	–	–	6.5 nM	0.1 nM	<19.9%	IC50 [1, 9]: 224 nM; IC50 [6]: 1780 nM
OB1OCc2cc(Nc3ncc(Cl)c(NC4CCCC4)n3)cc(F)c21 [Example C015]	–	–	–	–	26.5 nM	0.8 nM	67.2%	IC50 ([4]; Table 3b, comparator compounds): 85.7 nM
OB1OCc2cc(Nc3ncc(F)c(NC4CCCCC4)n3)ccc21 [Example C017]	–	–	–	–	1850 nM	11.2 nM	53.5%	IC50 [1, 9]: 1640 nM; IC50 [6]: 10000 nM
OB1OCc2cc(Nc3ncc(Cl)c(NC4CCCCC4)n3)ccc21 [Example C018]	–	–	–	–	118 nM	–	56.0%	IC50 ([4]; Table 3b, comparator compounds): 108 nM
OB1OCc2cc(Nc3ncc(C(F)(F)F)c(NC4CCCC4)n3)ccc21 [Example C019]	–	–	–	–	171 nM	29.5 nM	73.8%	IC50 ([4]; Table 3b, comparator compounds): 275 nM; Inhibition PDE4B @ 1 μM ([4]; Table 3b, comparator compounds): 90%
OB1OCc2cc(Nc3ncc(C(F)(F)F)c(NC4CCCCC4)n3)ccc21 [Example C020]	–	–	–	–	397 nM	44.1 nM	<19.9%	IC50 ([4]; Table 3b, comparator compounds): 37.6 nM
